Experimental data from patent publication US20060046972A1, “Cytotoxic nucleoside analog compound 003 for treating cancer” (Parker Hughes Institute, priority 2004, published 2006).
Entries after “also recorded” stand apart in the source; their conditions may differ. Like-named read-outs stand apart in the source and are kept apart here.

Legend:
BT20 breast cancer cells = assay: Confocal laser scanning microscopy of microtubules / mitotic spindle, BT20; assay type: cell-based, human; settings: 185 μM for 24 hours (AZT: similar concentrations)
Procedure: Immunofluorenscence was used to examine the spindle features of human cancer cell lines treated with Compound 003 or 0.5% DMSO. […] The coverslips were incubated with antibodies raised against α-tubulin, γ-tubulin (Sigma Chemical Co., St Louis, Mo.) (40 min 37° C.), washed in PBS-Tx-100, and incubated with an appropriate secondary antibody conjugated to FITC (Jackson ImmunoResearch, Westgrove, Pa.). Cellular DNA was labeled with 5 μM TOTO3 (Molecular Probes, Eugene, Oreg.) for 20 minutes. Coverslips were immediately inverted onto slides in Vectashield (Vector Labs, Burlingame, Calif.) to prevent photobleaching, sealed with nail varnish and stored at −20° C. The slides were examined using a Bio-Rad MRC-1024 Laser Scanning Confocal Microscope equipped with a Kr/Ar laser (BioRad, Hercules, Calif.) mounted on a Nikon Eclipse E800 upright microscope with high numerical aperture objectives (Nikon, Melville, N.Y.). Digital data were processed using Lasersharp (BioRad) and Adobe Photoshop software (Adobe Systems, Mountain View, Calif.). ( See, for example, Navara, et al., 2001, Anticancer Drugs. 12:369; Malaviya, et al., 2002, Leuk Lymphoma. 43, 1329; and Ghosh, 1998, Clin Cancer Res. 4, 2657).

[1] = Pharmacokinetics in CD-1 mice after intravenous or oral Compound 003; assay type: in vivo; settings: female, CD-1, mouse
Procedure: Each plasma sample (200 μL) was mixed 1:4 with acetone (800 μL) and vortexed for at least 30 seconds. Following centrifugation, the supernatant was transferred into a clean tube and dried under nitrogen. A 50 μL solution of 50% methanol in 200 mM HCl was used to reconstitute the extraction residue, and 35 μL was subjected to analytical HPLC. The analytical column used was a 250×4 mm Lichrospher 100, RP-18 (5 μm) and the guard column was a 4×4 mm Lichrospher 100, RP-18 (5 μm). The mobile phase was degassed automatically by the electronic degasser system. The column was equilibrated and eluted under gradient conditions utilizing a flow rate of 1.0 ml/min at ambient temperature. The linear gradient mobile phase was: 0 minute, 100% 10 mM ammonium phosphate buffer (pH 3.7); 20 minutes, 20% acetonitrile, 80% ammonium phosphate buffer (pH 3.7); 20.1-50 minutes, 28% acetonitrile, 72% water (0.1% HAC). The wavelength of detection was set at 270 nm. Peak width, response time and slit werep, set at >0.03 minutes, 0.5 s and 8 nm, respectively.
Female CD-1 mice (6-8 weeks old) (Charles River, Wilmington, Mass.) were housed in a USDA-accredited animal care facility under standard environmental conditions (12-h light/12-h dark photoperiod, 22±1° C., 60±10% relative humidity). All rodents were housed in microisolator cages (Lab Products, Inc., N.J.) containing autoclaved bedding. Mice were allowed free access to autoclaved pellet food and tap water throughout the study. All animal studies are approved by the Parker Hughes Institute Animal Care and Use Committee, and all animal care procedures conformed to the principles outlined in the Guide for the Care and Use of Laboratory Animals (National Research Council;. National Academy Press, Washington D.C. 1996).
Compound 003 (200 mg/kg) dissolved in DMSO was administered intravenously via tail vein to non-fasted mice or orally via gavage to 12-h fasted mice. Four to six mice per time-point were used for pharmacokinetic studies. Blood samples (˜500 μL) were obtained from the ocular venous plexus by retro-orbital venipuncture at 0, 5, 10, 15, 30, 45 minutes, and 1 h, 1.5 h, 2 h, 4 h, 6 h and 8 h after oral administration. All collected blood-samples were heparinized and centrifuged at 7000×g for 5 minutes to separate the plasma fraction from the whole blood. The plasma samples were then processed immediately using the extraction procedure described above.
Pharmacokinetic modeling and parameter calculations were carried out using the WinNonlin Professional Version 3.0 (Pharsight, Inc., Mountain, Calif.) pharmacokinetics software (Chen, C. L., et al., (1999) Pharm Res. 16:117; Chen, C. L., et al., (1999) Pharm Res. 16:1003; Uckun, F. M., et al., (1999) Clin Cancer Res. 5:2954). An appropriate model was chosen on the basis of the lowest sum of weighted squared residuals, the lowest Schwartz Criterion (SC), the lowest Akaike's Information Criterion (AIC) value, the lowest standard errors of the fitted parameters, and the dispersion of the residuals. The elimination half-life was estimated by linear regression analysis of the terminal phase of the plasma concentration-time profile. The systemic clearance (CL) was determined by dividing the dose by the AUC.

[2] = Wang et al. (1996); cited from earlier work
[3] = tested on: esterase-mediated metabolism of Compound 003 in BT20 cells; assay: Inhibition of ala-AZT-MP formation by esterase inhibitors, BT20; assay type: cell-based, human
Procedure: (§1) BT20 breast cancer cells were cultured in a medium composed of MEM, 10% FBS, 0:1 mM of nonessential amino acids and Earles salts, and 1% penicillin/streptornyclin Nalm6 cells were maintained in a medium composed of RPMI, 10% fetal bovine serum (FBS) and 1% penicillin/streptomycin. BT20 cells were seeded in 6-cm petri-dishes at 4 million cells per plate. Nalm6 cells at a density of 10^6 cells per ml were also utilized in drug metabolism study. Either one plate of adherent cells or 10 million nonadherent cells were utilized at each experiment. Cells were incubated with DMSO or 100 μM of esterase inhibitor, paraoxon, bis(p-nitrophenyl)phosphate (BNPP), physostigmine, or phenylmethylsulfonyl fluoride (PMSF) (Sigma) for 3.0 minutes, followed by 1 hour incubation of 100 μM Compound 003. After incubation, cells were washed two times with ice-cold PBS, and extracted by addition of 60% methanol. Cell lysates were kept at −20° C. overnight, after which lysates were centrifuged at 15,000×g for 10 minutes to remove the cell debris. One hundred microliters of these lysates were injected directly to HPLC. The amount of metabolite product of the esterase reaction, ala-AZT-MP, was measured to examine the effect of inhibitors on esterase-mediated metabolism of Compound 003.

[4] = tested on: BT20 breast cancer cell line; assay: Intracellular metabolism of Compound 003 to ala-AZT-MP, BT20; assay type: in vitro ADME, human
Text: (§2) Intracellular metabolism of Compound 003 was studied in CEM T-lineage lymphoma cell line, BT20 breast cancer cell line, T98 glioblastoma cell line, and Nalm-6 B-lineage leukemia cell line. CEM and Nalm6 cells were maintained in RPMI supplemented with 10% fetal bovine serum, and 1% penicillin/streptomycin. BT20 and T98 cells w.ere cultured in a medium composed of MEM, 10% fetal bovine serum, 0.1-mM of nonessential amino acids and Earles salts, and 1% penicillin/streptomycin. CEM and Nalm6 cells at a density of 10^6 cells per ml were utilized in the drug metabolism study. BT20 and T98 cells were seeded in 6-cm petri-dishes at 4 million cells and 2 million cells per plate, respectively, the day before the experiment. Either one plate of adherent cells or 10 million non-adherent cells was utilized at each time point. Cells were incubated with various concentrations of the compounds up to 24 hrs at 37° C. After incubation, cells were washed 2 times with ice-cold PBS, and extracted by addition of 0.5-1 ml of 60% methanol. Cell lysates were kept at −20° C. overnight, after which lysates were centrifuged at 15000×g for 10 minutes to remove the cell debris. One hundred microliters of these lysates were injected directly to HPLC. For half-life study, cells at the same density as in drug metabolism study were treated with 100 μM Compound 003 for 2 hrs, after which cells were washed 2 times with ice-cold PBS, and resuspended in warm media until the time they were harvested. For uptake and efflux study, cells were seeded at 2 million cells in 2 ml of media. […] With efflux experiments, cells 1×10^6/mL (the same density as in the uptake study) were incubated with 100 μM Compound 003 for 1 hr, washed 2 times with ice-cold PBS, and resuspended with culture medium without drug, and the metabolite efflux from cells to the medium was measured after 6 hr of incubation. […]

[5] = tested on: CEM T-lineage lymphoma cell line; assay: Intracellular metabolism of Compound 003 to ala-AZT-MP, CEM; assay type: in vitro ADME, human
Text: as §2, with “methanol.” for “methanol. Cell lysates were kept at −20° C. overnight, after which lysates were centrifuged at 15000×g for 10 minutes to remove the cell debris. One hundred microliters of these lysates were injected directly to HPLC. For half-life study, cells at the same density as in drug metabolism study were treated with 100 μM Compound 003 for 2 hrs, after which cells were washed 2 times with ice-cold PBS, and resuspended in warm media until the time they were harvested. For uptake and efflux study, cells were seeded at 2 million cells in 2 ml of media.”

[6] = tested on: Nalm-6 B-lineage leukemia cell line; assay: Intracellular metabolism of Compound 003 to ala-AZT-MP, Nalm6; assay type: in vitro ADME, human
Text: as §2, with “methanol.” for “methanol. Cell lysates were kept at −20° C. overnight, after which lysates were centrifuged at 15000×g for 10 minutes to remove the cell debris. One hundred microliters of these lysates were injected directly to HPLC. For half-life study, cells at the same density as in drug metabolism study were treated with 100 μM Compound 003 for 2 hrs, after which cells were washed 2 times with ice-cold PBS, and resuspended in warm media until the time they were harvested. For uptake and efflux study, cells were seeded at 2 million cells in 2 ml of media.”

BT20 cells = assay: Metabolite efflux from cells to the medium; assay type: in vitro ADME, human; settings: 100 μM Compound 003 1 hr, efflux after 6 hr
Text: Intracellular metabolism of Compound 003 was studied in CEM T-lineage lymphoma cell line, BT20 breast cancer cell line, T98 glioblastoma cell line, and Nalm-6 B-lineage leukemia cell line. CEM and Nalm6 cells were maintained in RPMI supplemented with 10% fetal bovine serum, and 1% penicillin/streptomycin. BT20 and T98 cells w.ere cultured in a medium composed of MEM, 10% fetal bovine serum, 0.1-mM of nonessential amino acids and Earles salts, and 1% penicillin/streptomycin. CEM and Nalm6 cells at a density of 10^6 cells per ml were utilized in the drug metabolism study. BT20 and T98 cells were seeded in 6-cm petri-dishes at 4 million cells and 2 million cells per plate, respectively, the day before the experiment. Either one plate of adherent cells or 10 million non-adherent cells was utilized at each time point. Cells were incubated with various concentrations of the compounds up to 24 hrs at 37° C. After incubation, cells were washed 2 times with ice-cold PBS, and extracted by addition of 0.5-1 ml of 60% methanol. […] With efflux experiments, cells 1×10^6/mL (the same density as in the uptake study) were incubated with 100 μM Compound 003 for 1 hr, washed 2 times with ice-cold PBS, and resuspended with culture medium without drug, and the metabolite efflux from cells to the medium was measured after 6 hr of incubation.

[7] = tested on: esterase-mediated metabolism of Compound 003 in Nalm6 cells; assay: Inhibition of ala-AZT-MP formation by esterase inhibitors, Nalm6; assay type: cell-based, human; settings: 100 μM inhibitor, then 100 μM Compound 003 1 hour
Procedure: as §1

[8] = iv, plasma metabolite following i.v. 200 mg/kg Compound 003
[9] = iv, plasma metabolite following i.v. 200 mg/kg Compound 003, read-out: elimination half-life (t1/2)
[10] = po, plasma metabolite following p.o. 200 mg/kg Compound 003
[11] = plasma metabolite following oral 200 mg/kg Compound 003, read-out: elimination half-life

SMILES | AUC [1, 8] | Cmax [1, 8] | Tmax [1, 8] | half-life [1, 9] | AUC [1, 10] | Cmax [1, 10] | Tmax [1, 10] | half-life [1, 11] | potency order of esterase inhibitors [3] | other results
Cc1cn([C@H]2C[C@H](N=[N+]=[N-])[C@@H](CO)O2)c(=O)[nH]c1=O [AZT, 3′-azido-3′-deoxythymidine, reference compound] | 152 µM·h | 64.3 µM | 50.4 min | 35 min | 386 ± 124 µM·h | 46.9 µM | 144 min | 149 min | – | effect on microtubules (BT20 breast cancer cells): no effect on microtubules; elimination t1/2 of AZT given as such [2]: ~21.2 min
O=[N+]([O-])c1ccc(OP(=O)(O)Oc2ccc([N+](=O)[O-])cc2)cc1 [BNPP, Bis(p-nitrophenyl)phosphate] | – | – | – | – | – | – | – | – | paraoxon>BNPP>PMSF>physostigmine | –
O=S(=O)(F)Cc1ccccc1 [PMSF, phenylmethyl sulfonyl fluoride] | – | – | – | – | – | – | – | – | paraoxon>BNPP>PMSF>physostigmine | –
Cc1cn(C2CC(N=[N+]=[N-])C(COP(=O)(O)NC(C)C(=O)O)O2)c(=O)[nH]c1=O (centres unmarked) [ala-AZT-MP, 3′-azido-3′-deoxythymidine-5′-alaninyl phosphate] | 191 µM·h | 1880 µM | 1.2 min | 33.2 min | 20.7 ± 8.5 µM·h | 9.8 µM | 4.5 min | 94.5 min | – | further intracellular conversion of ala-AZT-MP [4]: preferentially converted to AZT-MP; intracellular accumulation of ala-AZT-MP, BT20 relative to the other three cell lines ([4]; 25-100 μM Compound 003, 3 hr): 6-12 fold; further intracellular conversion of ala-AZT-MP [5]: only AZT was detectable; level of ala-AZT-MP formation, CEM relative to Nalm6 ([5]; intact cells): 2 fold; further intracellular conversion of ala-AZT-MP [6]: converted to AZT first then to AZTmp; efflux of ala-AZT-MP (BT20 cells): only detectable from BT20 cells; Tmax ([1]; plasma, 200 mg/kg, mice, after Compound 003, route not distinguished): < 5 min
CCOP(=O)(OCC)Oc1ccc([N+](=O)[O-])cc1 [paraoxon] | – | – | – | – | – | – | – | – | paraoxon>BNPP>PMSF>physostigmine | inhibition of metabolism of Compound 003 to ala-AZT-MP [7]: most potent inhibitor; also recorded: only paraoxon was effective in inhibiting the metabolism
